Target: T1, human M1 receptor (hCHRM1) (Homo sapiens, UniProt P11229)
T1 construct: expressed in transfected cells; host or cells: CHO-K1
T1 sequence (P11229 1-460): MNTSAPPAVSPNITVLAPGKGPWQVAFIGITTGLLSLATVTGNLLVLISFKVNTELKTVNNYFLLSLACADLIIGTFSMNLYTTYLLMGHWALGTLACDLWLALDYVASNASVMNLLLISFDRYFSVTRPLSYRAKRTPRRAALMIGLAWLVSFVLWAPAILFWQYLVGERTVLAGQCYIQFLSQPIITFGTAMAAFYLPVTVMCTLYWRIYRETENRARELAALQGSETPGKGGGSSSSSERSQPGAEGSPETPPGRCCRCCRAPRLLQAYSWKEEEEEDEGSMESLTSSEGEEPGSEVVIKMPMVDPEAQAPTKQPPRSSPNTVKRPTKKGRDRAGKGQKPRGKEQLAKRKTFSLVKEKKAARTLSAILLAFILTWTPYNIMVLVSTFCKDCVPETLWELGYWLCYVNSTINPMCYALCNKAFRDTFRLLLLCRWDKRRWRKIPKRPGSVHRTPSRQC
Test: Measurement of M1 receptor positive allosteric modulator (M1PAM) activity, calcium fluorescence (FLIPRtetra) in CHO-K1 cells in the presence of acetylcholine at EC20
Type: cell-based
Conditions: in the presence of acetylcholine at EC20 (final 0.6 nM), CHO-K1 cells expressing hCHRM1; for EC50: inflection point of M1PAM activity, read-out: IP value; for activity (%) at 10 μM: test compound 10 μM
Procedure: Measurement of M1 Receptor Positive Allosteric Modulator (M1PAM) Activity
The activity of a test compound in the presence of acetylcholine at EC20 concentration (final concentration 0.6 nM), which affords an action corresponding to 20% of the maximum activity, was measured as PAM activity. The method is as follows. CHO-K1 cells forcibly expressing a human M1 receptor (hCHRM1) were plated on a 384-well black clear bottom plate (BD Falcon) at 5,000 cells/well, and cultured in an incubator at 37° C., 5% CO2 for 1 day. The medium in the cell plate was removed, and assay buffer A (Recording medium (DOJINDO LABORATORIES), 0.1% BSA (Wako Pure Chemical Industries, Ltd.), 2.5 μg/mL Fluo-4 AM (DOJINDO LABORATORIES), 0.08% Pluronic F127 (DOJINDO LABORATORIES), 1.25 mM probenecid (DOJINDO LABORATORIES)) containing a calcium indicator was added at 30 μL/well. The cells were left standing in the incubator at 37° C., 5% CO2 for 30 min, and further left standing at room temperature for 30 min. A test compound prepared by diluting with assay buffer B (HBSS (Invitrogen), 20 mM HEPES (Invitrogen), 0.1% BSA) containing 2.4 nM acetylcholine was added at 10 μL/well, and the fluorescence was measured by FLIPRtetra (Molecular Devices) for 1 min every 1 second. With the definition that the amount of change in the fluorescence on addition of acetylcholine (final concentration 1 μM) is 100% and that on addition of DMSO instead of a test compound is 0%, the activity (%) of the test compound and the inflection point in the concentration-dependent curve of the test compound were calculated as IP values.

Row | EC50 [nM] | activity (%) at 10 μM [%] | SMILES
1 | 19 | 103 | O=C1c2c(O[C@@H]3CCCC[C@H]3O)ccc(F)c2CN1Cc1ccc(-n2cccn2)cc1 (relative stereo) [Example 223, 4-fluoro-7-((trans-2-hydroxycyclohexyl)oxy)-2-(4-(1H-pyrazol-1-yl)benzyl)isoindolin-1-one]
2 | 38 | 107 | Cc1cc(-c2ccc(CN3Cc4cccc(O[C@H]5CCC[C@@H]5O)c4C3=O)cc2)ccn1 (relative stereo) [Example 224, 7-((trans-2-hydroxycyclopentyl)oxy)-2-(4-(2-methylpyridin-4-yl)benzyl)isoindolin-1-one]
3 | 30 | 98 | Cc1nn(C)cc1-c1ccc(CN2Cc3cccc(O[C@H]4CCC[C@@H]4O)c3C2=O)cc1 (relative stereo) [Example 226, 2-(4-(1,3-dimethyl-1H-pyrazol-4-yl)benzyl)-7-((trans-2-hydroxycyclopentyl)oxy)isoindolin-1-one]
4 | 10 | 99 | Cc1nn(C)cc1-c1ccc(CN2Cc3ccnc(O[C@H]4CCC[C@@H]4O)c3C2=O)cc1 (relative stereo) [Example 227, 2-(4-(1,3-dimethyl-1H-pyrazol-4-yl)benzyl)-4-((trans-2-hydroxycyclopentyl)oxy)-1,2-dihydro-3H-pyrrolo[3,4-c]pyridin-3-one]
5 | 94 | 118 | O=C1c2c(ccc(F)c2O[C@H]2CCCC[C@@H]2O)CN1Cc1ccc(-n2cccn2)cc1 (relative stereo) [Example 228, 6-fluoro-7-((trans-2-hydroxycyclohexyl)oxy)-2-(4-(1H-pyrazol-1-yl)benzyl)isoindolin-1-one]
6 | 14 | 105 | Cn1cc(-c2ccc(CN3Cc4cccc(O[C@H]5CCC[C@@H]5O)c4C3=O)cc2)nn1 (relative stereo) [Example 235, 7-((trans-2-hydroxycyclopentyl)oxy)-2-(4-(1-methyl-1H-1,2,3-triazol-4-yl)benzyl)isoindolin-1-one]
7 | 10 | 109 | Cn1ccc(-c2ccc(CN3Cc4ccnc(O[C@H]5CCC[C@@H]5O)c4C3=O)c(F)c2)n1 (relative stereo) [Example 236, 2-(2-fluoro-4-(1-methyl-1H-pyrazol-3-yl)benzyl)-4-((trans-2-hydroxycyclopentyl)oxy)-1,2-dihydro-3H-pyrrolo[3,4-c]pyridin-3-one]
8 | 23 | 108 | Cn1ccc(-c2ccc(CN3Cc4ccnc(O[C@H]5CCC[C@@H]5O)c4C3=O)cc2)n1 (relative stereo) [Example 237, 4-((trans-2-hydroxycyclopentyl)oxy)-2-(4-(1-methyl-1H-pyrazol-3-yl)benzyl)-1,2-dihydro-3H-pyrrolo[3,4-c]pyridin-3-one]
9 | 16 | 104 | O=C1c2c(cc(F)cc2O[C@H]2CCCC[C@@H]2O)CN1Cc1ccc(-n2cccn2)cc1 (relative stereo) [Example 244, 5-fluoro-7-((trans-2-hydroxycyclohexyl)oxy)-2-(4-(1H-pyrazol-1-yl)benzyl)isoindolin-1-one]
10 | 2.1 | 94 | Cc1nn(C)cc1-c1ccc(CN2Cc3ccnc(O[C@H]4CCCC[C@@H]4O)c3C2=O)cc1 (relative stereo) [Example 267, 2-(4-(1,3-dimethyl-1H-pyrazol-4-yl)benzyl)-4-((trans-2-hydroxycyclohexyl)oxy)-1,2-dihydro-3H-pyrrolo[3,4-c]pyridin-3-one]
11 | 6.4 | 97 | Cn1ccc(-c2cc(F)c(CN3Cc4ccnc(O[C@H]5CCC[C@@H]5O)c4C3=O)c(F)c2)n1 (relative stereo) [Example 328, 2-(2,6-difluoro-4-(1-methyl-1H-pyrazol-3-yl)benzyl)-4-((trans-2-hydroxycyclopentyl)oxy)-1,2-dihydro-3H-pyrrolo[3,4-c]pyridin-3-one]
12 | 4.4 | 94 | O=C1c2c(cccc2O[C@H]2CCCC[C@@H]2O)CN1Cc1ccc(-c2ccnnc2)cc1 (relative stereo) [Example 352, 7-((trans-2-hydroxycyclohexyl)oxy)-2-(4-(pyridazin-4-yl)benzyl)isoindolin-1-one]
13 | 4.3 | 95 | Cc1cc(-c2ccc(CN3Cc4cccc(O[C@H]5CCCC[C@@H]5O)c4C3=O)cc2)cnn1 (relative stereo) [Example 355, 7-((trans-2-hydroxycyclohexyl)oxy)-2-(4-(6-methylpyridazin-4-yl)benzyl)isoindolin-1-one]
14 | 97 | 94 | O=C1c2c(ccnc2O[C@H]2CCCC[C@@H]2O)CN1Cc1cccs1 (relative stereo) [Example 399, 4-((trans-2-hydroxycyclohexyl)oxy)-2-(2-thienylmethyl)-1,2-dihydro-3H-pyrrolo[3,4-c]pyridin-3-one]
15 | 56 | 88 | O=C1c2c(ccnc2O[C@H]2CCCC[C@@H]2O)CN1Cc1ccc(Br)s1 (relative stereo) [Example 400, 2-((5-bromo-2-thienyl)methyl)-4-((trans-2-hydroxycyclohexyl)oxy)-1,2-dihydro-3H-pyrrolo[3,4-c]pyridin-3-one]
16 | 48 | 92 | O=C1c2c(ccnc2O[C@H]2CCCC[C@@H]2O)CN1Cc1ccc(Cl)s1 (relative stereo) [Example 401, 2-((5-chloro-2-thienyl)methyl)-4-((trans-2-hydroxycyclohexyl)oxy)-1,2-dihydro-3H-pyrrolo[3,4-c]pyridin-3-one]
17 | 4.6 | 104 | Cc1nn(C)cc1-c1ccc(CN2Cc3ccnc(O[C@H]4CCCC[C@@H]4O)c3C2=O)s1 (relative stereo) [Example 402, 2-((5-(1,3-dimethyl-1H-pyrazol-4-yl)-2-thienyl)methyl)-4-((trans-2-hydroxycyclohexyl)oxy)-1,2-dihydro-3H-pyrrolo[3,4-c]pyridin-3-one]
18 | 8.2 | 110 | Cc1cc(-c2ccc(CN3Cc4ccnc(O[C@@H]5CCC[C@H]5O)c4C3=O)cc2)ccn1 (single isomer, unassigned) [Example 242, 4-((trans-2-hydroxycyclopentyl)oxy)-2-(4-(2-methylpyridin-4-yl)benzyl)-1,2-dihydro-3H-pyrrolo[3,4-c]pyridin-3-one]
19 | 37 | 104 | Cc1cc(-c2ccc(CN3Cc4ccnc(O[C@@H]5CCC[C@H]5O)c4C3=O)cc2)ccn1 (single isomer, unassigned) [Example 243, 4-((trans-2-hydroxycyclopentyl)oxy)-2-(4-(2-methylpyridin-4-yl)benzyl)-1,2-dihydro-3H-pyrrolo[3,4-c]pyridin-3-one]
20 | 57 | 101 | Cn1ccc(-c2ccc(CN3Cc4ccnc(OCC5CCCO5)c4C3=O)cc2)n1 (single isomer, unassigned) [Example 245, 2-(4-(1-methyl-1H-pyrazol-3-yl)benzyl)-4-((tetrahydrofuran-2-yl)methoxy)-1,2-dihydro-3H-pyrrolo[3,4-c]pyridin-3-one]
21 | 9.4 | 100 | Cn1ccc(-c2ccc(CN3Cc4ccnc(OCC5CCCO5)c4C3=O)cc2)n1 (single isomer, unassigned) [Example 246, 2-(4-(1-methyl-1H-pyrazol-3-yl)benzyl)-4-((tetrahydrofuran-2-yl)methoxy)-1,2-dihydro-3H-pyrrolo[3,4-c]pyridin-3-one]
22 | 3 | 117 | Cc1nn(C)cc1-c1ccc(CN2Cc3cccc(O[C@@H]4CCOC[C@H]4O)c3C2=O)cc1 (single isomer, unassigned) [Example 248, 1,5-anhydro-2-deoxy-3-O-(2-(4-(1,3-dimethyl-1H-pyrazol-4-yl)benzyl)-3-oxo-2,3-dihydro-1H-isoindol-4-yl)-threo-pentitol]

— patent publication US9777005B2 (Takeda Pharmaceutical Company Limited, priority 2012, dated 2017)
